According to US20120171396A1, “Drug suspension agent and method of manufacture thereof” (Beijing Zhongwei Shennong Chronic Desease Medicine Academe …, priority 2009, published 2012):

Columns and labels:
[1] = tested on: gastric and duodenal ulcer patients; assay: Clinical observation of NHD on gastric and duodenal ulcer patients; assay type: in vivo, human
Experimental: 1. Case selection: Selected 80 inpatients are in accordance with gastric and duodenal ulcer diagnostic criteria. The inpatients are randomly divided into two groups. […] 2. Method of treatment: […] The course of treatment is one month. After two months, review by gastroscopy. Omeprazole is used in the control group by oral administration once every day, one piece every time (20 mg), the course of treatment is the same. 3. Observation items: ulcer surface (regarding results tested by gastroscope as standard), partial clinical symptoms (such as abdominal pain and acid reflux) 4. Curative effect evaluation standard: referring to Chinese national diagnostic curative effect standard.

patients with diabetes = assay: Clinical curative effect of DHD on diabetes (diabetes kidney disease patients); assay type: in vivo, human; parameters: Blood glucose at 2 hours after the meal / Fasting blood glucose (FBG): unit not given here
Text: 1. The standard of selecting patients: All patients with diabetes are in accordance with WHO diabetes diagnostic criteria. Select 18 cases of urine protein, renal function and two groups with the matching developing speeds of renal function injury within one year from diabetes kidney disease patients (DN). […] Once patients are selected, other drugs related to sugar, fat metabolism are stopped administering, diet control and proper exercise therapy are continued. Test fasting blood glucose and blood glucose at 2 hours after the meal every week. After stabilizing the blood glucose, experimental treatment is performed, the treatment group uses DHD, once every day, four hours every time. […] 3. Results: By statistic treatment, clinical curative effects between the two groups are tested by Ridit, and observation indexes between the two groups and within every group before and after treatment are tested by t-test. Marked: […] Effective: […]

Kunming mice = assay: Pharmacodynamic test of the cough-relieving effect (ammonia-induced cough); assay type: in vivo; settings: 1 hour after administering, control: codeine phosphate 4 mg/kg by gavage, test: hung
Experimental: 60 kunming mice, in half respectively male and female and weighing from 18 g to 20 g, are randomly divided into 5 groups based on the weight, each group comprises 12 rice. […] suspension agent is hung in the test group. Codeine phosphate with a dosage of 4 mg/kg is administered to the control group by gavage.
For the above two groups, at 1 hour after administering, absorb 0.2 ml ammonia (with a concentration of 25%-28%) by 1 ml injector and inject the ammonia into the tampon with the same weight thereof, and then quickly put the injected tampon together with the white rice into an inverse 500 ml beaker, and then record the number of animal coughing within 3 minutes. The obvious decrease of cough frequency is regarded as the index of the antitussive effect.

hyperuricemia mice = assay: Pharmacodynamic test of hyperuricemia; assay type: in vivo
Experimental: Kunming male mice, weighing 24±2 g, are randomly divided into several groups, use i, g, once every day for 4 days, wherein the dosages administered to the saline group and the hyperuricemia model blank group are […] every day. IP potassium oxide hydrochloride for every hyperuricemia model blank group at 2 hours before blood sampling, and IP potassium oxide hydrochloride for test model group at 1 hour before the last using. At 2 hours after the last using, sample blood from the venous plexus behind the animal orbit to test the serum uric acid level.

[2] = tested on: male Prostatic hyperplasia patients; assay: Clinical curative effects of PHD on male Prostatic hyperplasia; assay type: in vivo, human
Text: Case selection: 72 patients, male, wherein 53 cases with the age of 60-69 years old, 16 cases with the age of 70-79 years old, 3 cases with the age of 80-89 years old. The longest course of disease is 11 years, the shortest is 3 months. There are 6 cases with the course of disease smaller than one year, 48 cases with the course of disease in the range of 1-4 years, 14 cases with the course of disease in the range of 5-10 years, 4 cases with the course of disease bigger than 10 years. There are 12 cases with prostate enlargement I-degree, 44 cases with prostate enlargement II-degree, and 16 cases with prostate enlargement III-degree. There are 4 cases integrated with bladder stones, and 6 cases with urinary infection.
Observation method: based on the ages of patients, course of disease and state of illness, patients are divided into two groups.
(1) The control group comprises 36 patients, administered with finasteride tablet, one every time, one time every day, oral administration.
(2) The treatment group comprises 36 patients, administered with PHD, four hours every time, one time every day, hanging.
Observe patients' symptoms before and after administration which mainly includes frequent urination at night, difficult urinating, urination becoming thinner, drop after urination, micturition pain, and urgent urination. No, light, medium, heavy symptoms are scored 0, 1, 2, 3 respectively. Observe integral changes before and after treatment. Rectal touch and B ultra examination are made to observe the recovery condition of prostate enlargement.
Based on the ratio of the integral difference of local symptom before administration to that after administration and the condition of prostate recovery, curative effects are evaluated. If healing, the integral ratio is 1, and prostate enlargement is back to normal. […] If effective, the integral ratio is in the range of ⅔ to ⅓, and prostate enlargement is improved. If invalid, the integral ration is smaller than ⅓, and prostate enlargement has no change.

[3] = of healed cases (14 NHD, 6 Omeprazole), time unit not given
[4] = treat group 50 cases NHD, control group 30 cases Omeprazole 20 mg oral
[5] = 12 weeks, DHD versus Gliquidone
[6] = 36 cases per group, PHD versus finasteride tablet

COc1ccc2[nH]c([S+]([O-])Cc3ncc(C)c(OC)c3C)nc2c1 (centres unmarked) [Omeprazole]
needed time for curing diseases: cases healed at course of treatment 6 [1, 3]: 0
needed time for curing diseases: cases healed at course of treatment 7 [1, 3]: 0
needed time for curing diseases: cases healed at course of treatment 8 [1, 3]: 2
needed time for curing diseases: cases healed at course of treatment 9 [1, 3]: 4
Healing (cases) ([1]; treat group 50 cases NHD hung 5 hours/day, control group 30 cases Omeprazole 20 mg oral once daily): 6
Invalid effect (cases) [1, 4]: 5
Marked effect (cases) [1, 4]: 6
Total efficient rate (%) [1, 4]: 83.3%
Turning better (cases) [1, 4]: 13

COc1ccc2c(c1)C(=O)N(CCc1ccc(S(=O)(=O)NC(=O)NC3CCCCC3)cc1)C(=O)C2(C)C [Gliquidone]
Blood glucose at 2 hours after the meal: Effective (cases) (patients with diabetes; [5]): 6
Blood glucose at 2 hours after the meal: Invalid (cases) (patients with diabetes; [5]): 0
Blood glucose at 2 hours after the meal: Marked (cases) (patients with diabetes; [5]): 4
Blood glucose at 2 hours after the meal: Total efficient rate (patients with diabetes; [5]): 100.0
Fasting blood glucose (FBG): Effective (cases) (patients with diabetes; [5]): 6
Fasting blood glucose (FBG): Invalid (cases) (patients with diabetes; [5]): 1
Fasting blood glucose (FBG): Total efficient rate (patients with diabetes; [5]): 90.0
Fasting blood glucose (FBG): Marked (cases) (patients with diabetes; 12 weeks, treatment group DHD four hours/day, control group Gliquidone 30 mg increased to 90 mg): 3
Blood glucose at 2 hours after the meal (patients with diabetes; After treating 2 weeks): 17.48
Fasting blood glucose (FBG) (patients with diabetes; After treating 2 weeks): 9.99
Blood glucose at 2 hours after the meal (patients with diabetes; After treating 4 weeks): 12.77
Fasting blood glucose (FBG) (patients with diabetes; After treating 4 weeks): 9.27
Blood glucose at 2 hours after the meal (patients with diabetes; After treating 8 weeks): 10.07
Fasting blood glucose (FBG) (patients with diabetes; After treating 8 weeks): 8.43
BUN (patients with diabetes; After treating (12 weeks)): 9.2 ± 0.6 mmol/L
Blood glucose at 2 hours after the meal (patients with diabetes; After treating (12 weeks)): 9.21
Fasting blood glucose (FBG) (patients with diabetes; After treating (12 weeks)): 7.62
Scr (patients with diabetes; After treating (12 weeks)): 250.9 ± 49.3 µmol/L
Urine protein (patients with diabetes; After treating (12 weeks)): 6.0 ± 2.7
BUN (patients with diabetes; Before treating): 9.5 ± 0.7 mmol/L
Blood glucose at 2 hours after the meal (patients with diabetes; Before treating): 14.79
Fasting blood glucose (FBG) (patients with diabetes; Before treating): 10.72
Scr (patients with diabetes; Before treating): 251.3 ± 54.6 µmol/L
Urine protein (patients with diabetes; Before treating): 6.2 ± 2.5

COc1ccc2c3c1O[C@H]1[C@@H](O)C=C[C@H]4[C@@H](C2)N(C)CC[C@@]341 [Codeine phosphate]
inhibition at 4 mg/kg (Kunming mice; Mus musculus, po, read-out: Cough inhibition Rate (%)): 67.3%
Cough Frequency (Kunming mice; number of coughing within 3 minutes): 11.2 ± 4.8

Oc1ncnc2[nH]ncc12 [Allopurinol]
Serum uric acid level of mice (mg/100 ml) (hyperuricemia mice; hyperuricemia mice, 2 hours after the last using, 4 days, Allopurinol dosage 10): 7.46 ± 0.17 mg/100 ml
effect on serum uric acid level of normal mice (hyperuricemia mice; normal mice, in words): can reduce the serum uric acid level of normal mice

CC(C)(C)NC(=O)[C@H]1CC[C@H]2[C@@H]3CC[C@H]4NC(=O)C=C[C@]4(C)[C@H]3CC[C@]12C [finasteride tablet, finasteride]
Effective (cases) [2, 6]: 6
Invalid (cases) [2, 6]: 16
Marked (cases) [2, 6]: 10
Total efficient rate [2, 6]: 52.78%
total effective cases [2, 6]: 26 cases
Healing (cases) ([2]; 36 cases per group, treatment PHD hung four hours daily, control finasteride tablet oral once daily): 4
Integral values of local symptoms before and after administration ([2]; in words, control P>0.05, treatment P<0.001): significant differences
